Assays:
Conditions in all cases: exposure time: 72 h
[1] = test system: E13 (patient-derived glioblastoma stem cells of classical subtype); test: phenotypic distance (Euclidean, principal components) from DMSO controls (arbitrary units); higher = stronger morphological change
[2] = test system: FT3469 (normal neural stem cell line); test: as above
[3] = test system: E31 (patient-derived glioblastoma stem cells of proneural subtype); test: as above
[4] = test system: E34 (patient-derived glioblastoma stem cells of proneural subtype); test: as above
[5] = test system: E28 (patient-derived glioblastoma stem cells of classical subtype); test: as above
[6] = test system: E57 (patient-derived glioblastoma stem cells of mesenchymal subtype); test: as above
[7] = test system: E21 (patient-derived glioblastoma stem cells of mesenchymal subtype); test: as above
[8] = test system: E13; test: surviving fraction (nuclei count normalised to DMSO); higher = more cells surviving (less toxic)
[9] = test system: FT3469; test: as above
[10] = test system: E31; test: as above
[11] = test system: E34; test: as above
[12] = test system: E28; test: as above
[13] = test system: E57; test: as above
[14] = test system: E21; test: as above
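Throughout, for phenotypic distance (Euclidean, principal components) from DMSO controls: cell Painting imaging in 384-well plates, CellProfiler features reduced to at least 20 principal components, Euclidean distance versus same-plate DMSO vehicle wells (0.1% v/v), median over six images per well.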
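Throughout, for surviving fraction (nuclei count normalised to DMSO): nuclei counted by high-content imaging of Hoechst-stained cells in laminin-coated 384-well plates, relative to 0.1% DMSO vehicle wells, with staurosporine as cell-death control.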

Nc1nc2n[nH]nc2c(=O)[nH]1 [Azaguanine-8]
Conditions	phenotypic distance	surviving fraction
[1], 4.1 nM	0.737	–
[1], 12.3 nM	0.508	–
[1], 37 nM	1.23	–
[1], 111.1 nM	0.95	–
[1], 333.3 nM	2.46	–
[1], 1000 nM	2.82	–
[1], 3000 nM	5.02	–
[2], 4.1 nM	0.821	–
[2], 12.3 nM	1.13	–
[2], 37 nM	0.941	–
[2], 111.1 nM	1.28	–
[2], 333.3 nM	1.37	–
[2], 1000 nM	1.95	–
[2], 3000 nM	2.95	–
[3], 4.1 nM	1.03	–
[3], 12.3 nM	0.622	–
[3], 37 nM	0.999	–
[3], 111.1 nM	1.08	–
[3], 333.3 nM	1.4	–
[3], 1000 nM	2.35	–
[3], 3000 nM	5.2	–
[4], 4.1 nM	0.455	–
[4], 12.3 nM	0.707	–
[4], 37 nM	0.662	–
[4], 111.1 nM	0.809	–
[4], 333.3 nM	1.12	–
[4], 1000 nM	2.2	–
[4], 3000 nM	3.18	–
[5], 4.1 nM	0.671	–
[5], 12.3 nM	0.89	–
[5], 37 nM	1	–
[5], 111.1 nM	0.848	–
[5], 333.3 nM	1.21	–
[5], 1000 nM	1.81	–
[5], 3000 nM	3.73	–
[6], 4.1 nM	0.712	–
[6], 12.3 nM	0.801	–
[6], 37 nM	1.2	–
[6], 111.1 nM	1.96	–
[6], 333.3 nM	3.18	–
[6], 1000 nM	5.55	–
[6], 3000 nM	6.09	–
[7], 4.1 nM	0.646	–
[7], 12.3 nM	1.28	–
[7], 37 nM	1.04	–
[7], 111.1 nM	1.87	–
[7], 333.3 nM	3.3	–
[7], 1000 nM	4.9	–
[7], 3000 nM	7.15	–
[8], 4.1 nM	–	0.918
[8], 12.3 nM	–	1.02
[8], 37 nM	–	1.08
[8], 111.1 nM	–	0.87
[8], 333.3 nM	–	0.559
[8], 1000 nM	–	0.581
[8], 3000 nM	–	0.307
[9], 4.1 nM	–	0.958
[9], 12.3 nM	–	1.15
[9], 37 nM	–	1.2
[9], 111.1 nM	–	0.987
[9], 333.3 nM	–	0.881
[9], 1000 nM	–	0.685
[9], 3000 nM	–	0.59
[10], 4.1 nM	–	0.825
[10], 12.3 nM	–	0.941
[10], 37 nM	–	1.07
[10], 111.1 nM	–	0.654
[10], 333.3 nM	–	0.48
[10], 1000 nM	–	0.225
[10], 3000 nM	–	0.0814
[11], 4.1 nM	–	0.988
[11], 12.3 nM	–	0.839
[11], 37 nM	–	0.913
[11], 111.1 nM	–	0.939
[11], 333.3 nM	–	0.795
[11], 1000 nM	–	0.601
[11], 3000 nM	–	0.563
[12], 4.1 nM	–	1.08
[12], 12.3 nM	–	1.11
[12], 37 nM	–	1.14
[12], 111.1 nM	–	0.882
[12], 333.3 nM	–	0.664
[12], 1000 nM	–	0.574
[12], 3000 nM	–	0.292
[13], 4.1 nM	–	1
[13], 12.3 nM	–	0.873
[13], 37 nM	–	0.831
[13], 111.1 nM	–	0.605
[13], 333.3 nM	–	0.459
[13], 1000 nM	–	0.271
[13], 3000 nM	–	0.22
[14], 4.1 nM	–	0.917
[14], 12.3 nM	–	1.06
[14], 37 nM	–	0.788
[14], 111.1 nM	–	0.68
[14], 333.3 nM	–	0.489
[14], 1000 nM	–	0.429
[14], 3000 nM	–	0.296

Nc1nc(Cl)nc2c1ncn2[C@@H]1O[C@H](CO)[C@@H](O)[C@@H]1F [Clofarabine]
Conditions	phenotypic distance	surviving fraction
[1], 4.1 nM	0.623	–
[1], 12.3 nM	2.78	–
[1], 37 nM	0.684	–
[1], 111.1 nM	0.632	–
[1], 333.3 nM	0.616	–
[1], 1000 nM	1.66	–
[1], 3000 nM	5.91	–
[2], 4.1 nM	0.724	–
[2], 12.3 nM	0.807	–
[2], 37 nM	0.917	–
[2], 111.1 nM	1.95	–
[2], 333.3 nM	2.04	–
[2], 1000 nM	1.6	–
[2], 3000 nM	2.19	–
[3], 4.1 nM	1.08	–
[3], 12.3 nM	1.33	–
[3], 37 nM	1.67	–
[3], 111.1 nM	2.85	–
[3], 333.3 nM	3.28	–
[3], 1000 nM	2.52	–
[3], 3000 nM	2.66	–
[4], 4.1 nM	0.795	–
[4], 12.3 nM	0.848	–
[4], 37 nM	0.943	–
[4], 111.1 nM	2.17	–
[4], 333.3 nM	3.94	–
[4], 1000 nM	3.25	–
[4], 3000 nM	3.42	–
[5], 4.1 nM	1.24	–
[5], 12.3 nM	1.42	–
[5], 37 nM	1.73	–
[5], 111.1 nM	2.31	–
[5], 333.3 nM	3.06	–
[5], 1000 nM	3.17	–
[5], 3000 nM	3.21	–
[6], 4.1 nM	0.635	–
[6], 12.3 nM	1.15	–
[6], 37 nM	2.09	–
[6], 111.1 nM	5.48	–
[6], 333.3 nM	5.92	–
[6], 1000 nM	6.82	–
[6], 3000 nM	6.53	–
[7], 4.1 nM	0.844	–
[7], 12.3 nM	1.11	–
[7], 37 nM	1.36	–
[7], 111.1 nM	2.15	–
[7], 333.3 nM	4.37	–
[7], 1000 nM	4.92	–
[7], 3000 nM	4.35	–
[8], 4.1 nM	–	0.852
[8], 12.3 nM	–	0.979
[8], 37 nM	–	0.86
[8], 111.1 nM	–	0.941
[8], 333.3 nM	–	0.913
[8], 1000 nM	–	0.789
[8], 3000 nM	–	0.318
[9], 4.1 nM	–	0.827
[9], 12.3 nM	–	0.915
[9], 37 nM	–	0.875
[9], 111.1 nM	–	0.79
[9], 333.3 nM	–	0.702
[9], 1000 nM	–	0.497
[9], 3000 nM	–	0.428
[10], 4.1 nM	–	0.754
[10], 12.3 nM	–	0.892
[10], 37 nM	–	0.64
[10], 111.1 nM	–	0.205
[10], 333.3 nM	–	0.142
[10], 1000 nM	–	0.236
[10], 3000 nM	–	0.206
[11], 4.1 nM	–	0.858
[11], 12.3 nM	–	1.04
[11], 37 nM	–	0.894
[11], 111.1 nM	–	0.777
[11], 333.3 nM	–	0.558
[11], 1000 nM	–	0.495
[11], 3000 nM	–	0.541
[12], 4.1 nM	–	0.864
[12], 12.3 nM	–	0.907
[12], 37 nM	–	0.515
[12], 111.1 nM	–	0.559
[12], 333.3 nM	–	0.341
[12], 1000 nM	–	0.366
[12], 3000 nM	–	0.3
[13], 4.1 nM	–	0.939
[13], 12.3 nM	–	0.847
[13], 37 nM	–	0.741
[13], 111.1 nM	–	0.402
[13], 333.3 nM	–	0.186
[13], 1000 nM	–	0.168
[13], 3000 nM	–	0.165
[14], 4.1 nM	–	0.962
[14], 12.3 nM	–	0.885
[14], 37 nM	–	0.825
[14], 111.1 nM	–	0.771
[14], 333.3 nM	–	0.343
[14], 1000 nM	–	0.118
[14], 3000 nM	–	0.116

COc1cccc2c1C(=O)c1c(O)c3c(c(O)c1C2=O)C[C@@](O)(C(=O)CO)C[C@@H]3O[C@H]1C[C@H](N)[C@H](O[C@@H]2CCCCO2)[C@H](C)O1 [Pirarubicin]
Conditions	phenotypic distance	surviving fraction
[1], 4.1 nM	5.19	–
[1], 12.3 nM	5.1	–
[1], 37 nM	4.19	–
[1], 111.1 nM	5.27	–
[1], 333.3 nM	5.59	–
[1], 1000 nM	5.06	–
[1], 3000 nM	6.07	–
[2], 4.1 nM	2.41	–
[2], 12.3 nM	2.29	–
[2], 37 nM	3.24	–
[2], 111.1 nM	6.3	–
[2], 333.3 nM	5.37	–
[2], 1000 nM	5.38	–
[2], 3000 nM	7.66	–
[3], 4.1 nM	3.76	–
[3], 12.3 nM	3.17	–
[3], 37 nM	4.87	–
[3], 111.1 nM	6.24	–
[3], 333.3 nM	4.82	–
[3], 1000 nM	7.62	–
[3], 3000 nM	10.2	–
[4], 4.1 nM	3.49	–
[4], 12.3 nM	3.06	–
[4], 37 nM	2.17	–
[4], 111.1 nM	4.14	–
[4], 333.3 nM	2.6	–
[4], 1000 nM	3.14	–
[4], 3000 nM	5.46	–
[5], 4.1 nM	4.14	–
[5], 12.3 nM	4.17	–
[5], 37 nM	4.19	–
[5], 111.1 nM	5.37	–
[5], 333.3 nM	4.96	–
[5], 1000 nM	5.04	–
[5], 3000 nM	4.01	–
[6], 4.1 nM	7.85	–
[6], 12.3 nM	8.69	–
[6], 37 nM	8.43	–
[6], 111.1 nM	8.17	–
[6], 333.3 nM	5.64	–
[6], 1000 nM	5.25	–
[6], 3000 nM	7.33	–
[7], 4.1 nM	5.11	–
[7], 12.3 nM	7.13	–
[7], 37 nM	6.25	–
[7], 111.1 nM	6.76	–
[7], 333.3 nM	7.24	–
[7], 1000 nM	6.47	–
[7], 3000 nM	9.02	–
[8], 4.1 nM	–	0.384
[8], 12.3 nM	–	0.325
[8], 37 nM	–	0.263
[8], 111.1 nM	–	0.0805
[8], 333.3 nM	–	0.1
[8], 1000 nM	–	0.0786
[8], 3000 nM	–	0.0218
[9], 4.1 nM	–	0.631
[9], 12.3 nM	–	0.549
[9], 37 nM	–	0.534
[9], 111.1 nM	–	0.31
[9], 333.3 nM	–	0.381
[9], 1000 nM	–	0.354
[9], 3000 nM	–	0.144
[10], 4.1 nM	–	0.141
[10], 12.3 nM	–	0.184
[10], 37 nM	–	0.101
[10], 111.1 nM	–	0.058
[10], 333.3 nM	–	0.107
[10], 1000 nM	–	0.0565
[10], 3000 nM	–	0.0104
[11], 4.1 nM	–	0.51
[11], 12.3 nM	–	0.559
[11], 37 nM	–	0.488
[11], 111.1 nM	–	0.527
[11], 333.3 nM	–	0.331
[11], 1000 nM	–	0.488
[11], 3000 nM	–	0.214
[12], 4.1 nM	–	0.322
[12], 12.3 nM	–	0.276
[12], 37 nM	–	0.244
[12], 111.1 nM	–	0.14
[12], 333.3 nM	–	0.347
[12], 1000 nM	–	0.209
[12], 3000 nM	–	0.0681
[13], 4.1 nM	–	0.226
[13], 12.3 nM	–	0.199
[13], 37 nM	–	0.176
[13], 111.1 nM	–	0.106
[13], 333.3 nM	–	0.126
[13], 1000 nM	–	0.122
[13], 3000 nM	–	0.0208
[14], 4.1 nM	–	0.251
[14], 12.3 nM	–	0.305
[14], 37 nM	–	0.194
[14], 111.1 nM	–	0.13
[14], 333.3 nM	–	0.0649
[14], 1000 nM	–	0.0703
[14], 3000 nM	–	0.0202

— the supplement of paper PMC13207355
